Assay type in all cases: cell-based
Assay [1] deals with T1, K-Shaw2 (Drosophila melanogaster, UniProt P17972).
T1 construct: gene Shaw; full-length channel, homotetramer, expressed in Xenopus oocytes from cRNA
T1 sequence (P17972 1-498): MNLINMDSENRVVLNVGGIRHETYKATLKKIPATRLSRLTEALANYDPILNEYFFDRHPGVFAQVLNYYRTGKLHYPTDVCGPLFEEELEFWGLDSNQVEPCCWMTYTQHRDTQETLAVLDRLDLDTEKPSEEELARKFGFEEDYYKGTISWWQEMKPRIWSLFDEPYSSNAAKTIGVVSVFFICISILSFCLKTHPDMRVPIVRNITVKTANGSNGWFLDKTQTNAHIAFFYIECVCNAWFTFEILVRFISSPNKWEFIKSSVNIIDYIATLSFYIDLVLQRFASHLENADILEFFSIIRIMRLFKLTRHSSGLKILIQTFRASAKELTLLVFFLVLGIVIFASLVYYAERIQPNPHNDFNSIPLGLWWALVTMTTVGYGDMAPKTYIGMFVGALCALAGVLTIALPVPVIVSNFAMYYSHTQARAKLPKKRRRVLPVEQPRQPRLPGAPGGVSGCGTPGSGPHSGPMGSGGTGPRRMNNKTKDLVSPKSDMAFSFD
The assay can be described thus: two-electrode voltage clamp, Xenopus oocytes, Hill fit. Particulars: inhibition; pH 7.4; 21-23 °C; voltage not given; read-out: K 1; cited from earlier work. An excerpt: two-electrode voltage clamp, Xenopus oocytes, Hill fit on K-Shaw2

Another assay deals with T2, ΔT1-K-Shaw2 (Drosophila melanogaster, UniProt P17972, DEL2-155).
T2 construct: gene Shaw; T1 domain deleted (lacks residues 2-155), homotetramer, expressed in Xenopus oocytes
T2 sequence (P17972 with tags, fused parts or gaps DEL2-155): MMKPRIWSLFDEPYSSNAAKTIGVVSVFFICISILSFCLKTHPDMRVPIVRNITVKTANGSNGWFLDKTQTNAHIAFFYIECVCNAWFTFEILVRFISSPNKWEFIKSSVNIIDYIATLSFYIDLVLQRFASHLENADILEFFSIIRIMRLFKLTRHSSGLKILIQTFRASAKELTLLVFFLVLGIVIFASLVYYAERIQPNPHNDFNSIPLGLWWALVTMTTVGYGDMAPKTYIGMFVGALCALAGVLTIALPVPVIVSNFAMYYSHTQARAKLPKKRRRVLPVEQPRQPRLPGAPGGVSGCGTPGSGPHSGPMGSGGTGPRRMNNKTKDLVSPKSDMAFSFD
The assay is described as above. Particulars: read-out: K 1. An excerpt:
two-electrode voltage clamp, Xenopus oocytes, Hill fit on ΔT1-K-Shaw2

The target of assay [2] is T1, K-Shaw2. The assay is described as follows: two-electrode voltage clamp, Xenopus oocytes, double Hill fit. Particulars: read-out: K 1. The source says:
two-electrode voltage clamp, Xenopus oocytes, double Hill fit on K-Shaw2 | Solid line is the best-fit double Hill equation to the K-Shaw2 data

With `FC(F)(F)C(Cl)Br` (centres unmarked) [halothane], the IC50 on K-Shaw2 [1] was 260 µM; at ΔT1-K-Shaw2, 380 µM.
Take `ClC(Cl)Cl` [chloroform]: the IC50 on K-Shaw2 [1] was 700 µM.
As to `CCCCO` [n-butanol], the IC50 is 10100 µM on K-Shaw2 [1] and 16400 µM on ΔT1-K-Shaw2.
With `FC(F)OC(Cl)C(F)(F)F` (centres unmarked) [isoflurane], at K-Shaw2 [1], the IC50 is 1690 µM.
For `FCOC(C(F)(F)F)C(F)(F)F` [sevoflurane], the EC50 at K-Shaw2 [2] came out at 80 µM.
For the molecule `CC(C)c1cccc(C(C)C)c1O` [propofol], the IC50 on K-Shaw2 [1] was 60 µM.

The values above are taken from publication PMC4657974, “Positive Allosteric Modulation of Kv Channels by Sevoflurane: Insights into the Structural Basis of Inhaled Anesthetic Action” (PLoS ONE, 2015).
